We go through 11 compounds from patent US20240398784A1, “C-LINKED ISOQUINOLINE AMIDES AS LRRK2 INHIBITORS, PHARMACEUTICAL COMPOSITIONS, AND USES THEREOF” (Merck Sharp & Dohme LLC, priority 2021, published 2024).

The target of the experiment is LRRK2 G2019S (Homo sapiens, UniProt Q5S007, G2019S). Kind of experiment: LRRK2 G2019S Km ATP LanthaScreen assay. In kind it is biochemical. The settings on record: read-out: LRRK2 pIC50 (converted). Background: In TR-FRET formats the signal depends on donor and acceptor labels being close together.
LRRK2 G2019S, sequence (Q5S007 whole entry G2019S): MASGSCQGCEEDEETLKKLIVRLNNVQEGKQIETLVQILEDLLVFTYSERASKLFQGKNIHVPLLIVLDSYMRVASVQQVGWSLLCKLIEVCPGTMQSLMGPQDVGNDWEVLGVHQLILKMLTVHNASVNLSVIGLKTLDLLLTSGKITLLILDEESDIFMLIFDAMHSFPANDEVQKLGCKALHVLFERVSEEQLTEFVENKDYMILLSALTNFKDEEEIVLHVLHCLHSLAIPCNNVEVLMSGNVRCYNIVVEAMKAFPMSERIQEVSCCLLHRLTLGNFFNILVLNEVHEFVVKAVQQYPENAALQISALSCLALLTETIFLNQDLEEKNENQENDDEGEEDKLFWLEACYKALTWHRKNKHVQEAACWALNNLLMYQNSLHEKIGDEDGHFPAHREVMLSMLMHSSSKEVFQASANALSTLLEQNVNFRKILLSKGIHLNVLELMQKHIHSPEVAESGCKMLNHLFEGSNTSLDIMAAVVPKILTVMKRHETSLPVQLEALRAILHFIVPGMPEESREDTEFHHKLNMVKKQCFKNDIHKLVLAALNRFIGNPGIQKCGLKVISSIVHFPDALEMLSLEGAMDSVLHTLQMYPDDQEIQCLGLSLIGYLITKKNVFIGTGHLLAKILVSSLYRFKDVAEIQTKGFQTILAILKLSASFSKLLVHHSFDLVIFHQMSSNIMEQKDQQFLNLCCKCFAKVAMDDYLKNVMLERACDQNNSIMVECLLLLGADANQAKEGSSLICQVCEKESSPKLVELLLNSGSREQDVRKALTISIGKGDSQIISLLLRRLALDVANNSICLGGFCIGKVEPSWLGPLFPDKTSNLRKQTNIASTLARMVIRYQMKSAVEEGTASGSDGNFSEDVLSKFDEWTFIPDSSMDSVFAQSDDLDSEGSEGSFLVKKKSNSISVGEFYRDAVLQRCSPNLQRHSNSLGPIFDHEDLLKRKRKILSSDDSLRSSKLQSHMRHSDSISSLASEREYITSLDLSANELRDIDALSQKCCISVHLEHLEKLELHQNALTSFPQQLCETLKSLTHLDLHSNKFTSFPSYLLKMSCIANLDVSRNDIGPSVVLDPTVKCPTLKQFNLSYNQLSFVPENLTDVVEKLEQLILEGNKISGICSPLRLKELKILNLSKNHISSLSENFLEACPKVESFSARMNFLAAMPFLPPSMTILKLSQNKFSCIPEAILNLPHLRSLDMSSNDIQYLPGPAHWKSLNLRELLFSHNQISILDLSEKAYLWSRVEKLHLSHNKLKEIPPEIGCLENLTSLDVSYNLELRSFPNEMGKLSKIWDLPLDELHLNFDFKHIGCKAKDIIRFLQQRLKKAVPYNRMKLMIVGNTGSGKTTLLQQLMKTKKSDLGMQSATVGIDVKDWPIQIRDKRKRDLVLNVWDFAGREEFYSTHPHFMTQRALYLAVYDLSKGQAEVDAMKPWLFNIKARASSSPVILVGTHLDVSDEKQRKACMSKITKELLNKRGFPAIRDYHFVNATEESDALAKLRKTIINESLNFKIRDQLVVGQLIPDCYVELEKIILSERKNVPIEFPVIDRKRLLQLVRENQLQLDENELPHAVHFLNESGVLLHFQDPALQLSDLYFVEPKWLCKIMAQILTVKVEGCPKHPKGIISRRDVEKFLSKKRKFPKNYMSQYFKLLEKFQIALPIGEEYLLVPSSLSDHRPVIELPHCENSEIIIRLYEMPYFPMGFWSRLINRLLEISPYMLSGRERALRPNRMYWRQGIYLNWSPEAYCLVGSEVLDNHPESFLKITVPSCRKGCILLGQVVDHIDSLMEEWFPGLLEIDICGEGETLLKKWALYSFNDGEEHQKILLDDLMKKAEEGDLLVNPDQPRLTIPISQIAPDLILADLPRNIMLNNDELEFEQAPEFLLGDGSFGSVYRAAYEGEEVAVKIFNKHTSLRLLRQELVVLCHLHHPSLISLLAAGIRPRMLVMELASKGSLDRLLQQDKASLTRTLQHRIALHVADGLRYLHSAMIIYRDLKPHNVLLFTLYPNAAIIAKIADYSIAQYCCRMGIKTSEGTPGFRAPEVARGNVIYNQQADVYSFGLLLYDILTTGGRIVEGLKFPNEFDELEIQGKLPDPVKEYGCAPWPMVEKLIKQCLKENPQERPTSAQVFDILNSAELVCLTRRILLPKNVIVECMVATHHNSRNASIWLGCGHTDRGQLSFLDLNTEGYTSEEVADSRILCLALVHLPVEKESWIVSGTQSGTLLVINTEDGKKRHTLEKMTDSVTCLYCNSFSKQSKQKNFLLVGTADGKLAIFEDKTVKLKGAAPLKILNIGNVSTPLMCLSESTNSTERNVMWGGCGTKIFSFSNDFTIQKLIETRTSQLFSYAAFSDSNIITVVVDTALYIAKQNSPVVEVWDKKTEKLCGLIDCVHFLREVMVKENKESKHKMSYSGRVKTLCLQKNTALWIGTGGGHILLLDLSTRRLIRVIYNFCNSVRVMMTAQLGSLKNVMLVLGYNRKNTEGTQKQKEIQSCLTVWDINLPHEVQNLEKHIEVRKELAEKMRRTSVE
`CC1(C)CC(C(=O)Nc2cc3cc(C4CCC(N5CCC(F)C5)CC4)c(Cl)cc3cn2)CCO1` (single isomer, unassigned) [Ex-5.13, N-(7-chloro-6-(4-(3-fluoropyrrolidin-1-yl)cyclohexyl)isoquinolin-3-yl)-2,2-dimethyltetrahydro-2H-pyran-4-carboxamid]: the IC50 was 479 nM.
With `CC1(C)CC(C(=O)Nc2cc3cc(C4CCC(N5CCC(F)C5)CC4)c(Cl)cc3cn2)CCO1` (single isomer, unassigned) [Ex-5.14, N-(7-chloro-6-(4-(3-fluoropyrrolidin-1-yl)cyclohexyl)isoquinolin-3-yl)-2,2-dimethyltetrahydro-2H-pyran-4-carboxamid], the IC50 was 38.9 nM.
As for `CC1(C)CC(C(=O)Nc2cc3cc(C4CCC(N5CCC(F)C5)CC4)c(Cl)cc3cn2)CCO1` (single isomer, unassigned) [Ex-5.15, N-(7-chloro-6-(4-(3-fluoropyrrolidin-1-yl)cyclohexyl)isoquinolin-3-yl)-2,2-dimethyltetrahydro-2H-pyran-4-carboxamid], the figure is 1.29 nM; as for `CC1(C)CC(C(=O)Nc2cc3cc(C4CCC(N5CCC(F)C5)CC4)c(Cl)cc3cn2)CCO1` (single isomer, unassigned) [Ex-5.16, N-(7-chloro-6-(4-(3-fluoropyrrolidin-1-yl)cyclohexyl)isoquinolin-3-yl)-2,2-dimethyltetrahydro-2H-pyran-4-carboxamid], 389 nM.
As for `CC1(C)CCC(C(=O)Nc2cc3cc(C4CCC(N5CCC(F)C5)CC4)c(Cl)cc3cn2)CO1` (single isomer, unassigned) [Ex-5.17, N-(7-chloro-6-(4-(3-fluoropyrrolidin-1-yl)cyclohexyl)isoquinolin-3-yl)-6,6-dimethyltetrahydro-2H-pyran-3-carboxamide], the IC50 was 5.62 nM.
As for `CC1(C)CCC(C(=O)Nc2cc3cc(C4CCC(N5CCC(F)C5)CC4)c(Cl)cc3cn2)CO1` (single isomer, unassigned) [Ex-5.18, N-(7-chloro-6-(4-(3-fluoropyrrolidin-1-yl)cyclohexyl)isoquinolin-3-yl)-6,6-dimethyltetrahydro-2H-pyran-3-carboxamide], the figure is 1020 nM.
For `CC1(C)CCC(C(=O)Nc2cc3cc(C4CCC(N5CCC(F)C5)CC4)c(Cl)cc3cn2)CO1` (single isomer, unassigned) [Ex-5.19, N-(7-chloro-6-(4-(3-fluoropyrrolidin-1-yl)cyclohexyl)isoquinolin-3-yl)-6,6-dimethyltetrahydro-2H-pyran-3-carboxamide] the value was 2.34 nM; for `CC1(C)CCC(C(=O)Nc2cc3cc(C4CCC(N5CCC(F)C5)CC4)c(Cl)cc3cn2)CO1` (single isomer, unassigned) [Ex-5.20, N-(7-chloro-6-(4-(3-fluoropyrrolidin-1-yl)cyclohexyl)isoquinolin-3-yl)-6,6-dimethyltetrahydro-2H-pyran-3-carboxamide], 10.5 nM; for `CC1(C)CCC(C(=O)Nc2cc3cc(C4CCC(N5CCC(F)C5)CC4)c(Cl)cc3cn2)CO1` (single isomer, unassigned) [Ex-5.21, N-(7-chloro-6-(4-(3-fluoropyrrolidin-1-yl)cyclohexyl)isoquinolin-3-yl)-6,6-dimethyltetrahydro-2H-pyran-3-carboxamide], 3630 nM.
As for `CC1(C)CCC(C(=O)Nc2cc3cc(C4CCC(N5CCC(F)C5)CC4)c(Cl)cc3cn2)CO1` (single isomer, unassigned) [Ex-5.22, N-(7-chloro-6-(4-(3-fluoropyrrolidin-1-yl)cyclohexyl)isoquinolin-3-yl)-6,6-dimethyltetrahydro-2H-pyran-3-carboxamide], the figure is 6.17 nM; as for `CC1(C)CCC(C(=O)Nc2cc3cc(C4CCC(N5CCC(F)C5)CC4)c(Cl)cc3cn2)CO1` (single isomer, unassigned) [Ex-5.23, N-(7-chloro-6-(4-(3-fluoropyrrolidin-1-yl)cyclohexyl)isoquinolin-3-yl)-6,6-dimethyltetrahydro-2H-pyran-3-carboxamide], 3020 nM.
